pIC50: −log10 of the molar value.

The target of the test is T1, RORγt (Homo sapiens, UniProt P51449).
T1 construct: purchased reporter-cell kit
T1 sequence (P51449 269-508 limits assumed): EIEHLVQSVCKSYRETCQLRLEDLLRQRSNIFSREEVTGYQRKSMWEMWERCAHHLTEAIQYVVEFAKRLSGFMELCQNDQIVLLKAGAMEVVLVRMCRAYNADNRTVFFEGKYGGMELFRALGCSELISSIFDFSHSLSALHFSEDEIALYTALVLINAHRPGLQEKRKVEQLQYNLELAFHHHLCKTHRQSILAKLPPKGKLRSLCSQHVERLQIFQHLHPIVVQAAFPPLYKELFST
As to the kind of experiment: Gal4 ligand binding assay (RORγt Gal fusion reporter assay). The class given is cell-based. As to conditions: inverse agonists, luciferase reporter, 24h. The protocol: Compounds of the present invention were tested in a human RORγ ligand binding assay using a commercially available cell based ligand binding reporter assay in 96-well format (Cat #IB04001, INDIGO Biosciences, State College, Pa.). The N-terminal DNA binding domains (DBD) of the native RORγ and RORγt receptors have been substituted with that of the yeast GAL4-DBD and stably transfected in […] cells that also stably express luciferase under the regulation by upstream activation sequence of yeast Gal4. These cells constitutively express high level RORγ activity due to binding of endogenous co-factors. Both agonist and inverse agonist activity can be detected. The assay was performed according to kit manufacturer's instructions as follows. 10 mM compound stocks were diluted serially 1:3 with DMSO and further diluted with provided media to generate 10 titration points from 60 μM to 3 nM. These treatment conditions were added to the plates as 2× media in 100 μL volume. Each plate includes a positive control with 10 titration points as well as 6negative control wells with vehicle only, with final DMSO concentration of 0.2%. RORγ reporter cells were rapidly thawed and added to the plates in 100 μL volume. The plates were incubated for 24h in a 37° C. humidified 5% CO2incubator. Media was removed before the addition of room temperature luciferous detection substrate. After 5 minute incubation, relative light units (RLUs) were quantified using a plate reading luminometer. Data was normalized to positive control wells with only […]. Before establishing internal controls, ursolic acid was used as control.
As for `Cc1cc(CN2CC3CCC(C2)N3S(C)(=O)=O)ccc1-c1ccc(C(O)(C(F)(F)F)C(F)(F)F)cc1` [Example 73, 1,1,1,3,3,3-hexafluoro-2-(2′-methyl-4′-((8-(methylsulfonyl)-3,8-diazabicyclo[3.2.1]octan-3-yl)methyl)-[1,1′-biphenyl]-4-yl)propan-2-ol], the negative-log IC50 (pIC50) is 6.60 to 7.30.
On to `CCc1cc(CN2CC3CCC(C2)N3S(C)(=O)=O)ccc1-c1ccc(C(O)(C(F)(F)F)C(F)(F)F)cc1F` [Example 24, 2-(2′-ethyl-2-fluoro-4′-((8-(methylsulfonyl)-3,8-diazabicyclo[3.2.1]octan-3-yl)methyl)-[1,1′-biphenyl]-4-yl)-1,1,1,3,3,3-hexafluoropropan-2-ol], for which the pIC50 is > 7.30.
Take `CCc1c(-c2ccc(C(O)(C(F)(F)F)C(F)(F)F)cc2C)cc(F)c(CN2CC3CCC(C2)N3S(C)(=O)=O)c1F` [Example 28, 2-(2′-ethyl-3′,5′-difluoro-2-methyl-4′-((8-(methylsulfonyl)-3,8-diazabicyclo[3.2.1]octan-3-yl)methyl)-[1,1′-biphenyl]-4-yl)-1,1,1,3,3,3-hexafluoropropan-2-ol]: the pIC50 was > 7.30.
On to `CCc1cc(CN2CC3CCC(C2)N3S(C)(=O)=O)cc(F)c1-c1ccc(C(O)(C(F)(F)F)C(F)(F)F)cc1F` [Example 17, 2-(2′-ethyl-2,6′-difluoro-4′-((8-(methylsulfonyl)-3,8-diazabicyclo[3.2.1]octan-3-yl)methyl)-[1,1′-biphenyl]-4-yl)-1,1,1,3,3,3-hexafluoropropan-2-ol], for which the pIC50 is > 7.30.
On to `Cc1cc(CN2CC3CCC(C2)N3Cc2ccc(F)cc2)ccc1-c1ccc(C(O)(C(F)(F)F)C(F)(F)F)cc1` [Example 77, 1,1,1,3,3,3-hexafluoro-2-(4′-((8-(4-fluorobenzyl)-3,8-diazabicyclo[3.2.1]octan-3-yl)methyl)-2′-methyl-[1,1'-biphenyl]-4-yl)propan-2-ol], for which the pIC50 was < 6.60.
Compound `CC(C)c1cc(CN2CC3CCC(C2)N3S(C)(=O)=O)ccc1-c1ccc(C(O)(C(F)(F)F)C(F)(F)F)cc1Cl` [Example 22, 2-(2-chloro-2′-isopropyl-4′-((8-(methylsulfonyl)-3,8-diazabicyclo[3.2.1]octan-3-yl)methyl)-[1,1′-biphenyl]-4-yl)-1,1,1,3,3,3-hexafluoropropan-2-ol] gave a negative logarithm of the IC50 (pIC50) of 6.60 to 7.30.
For `Cc1cc(CN2CC3CCC(C2)N3Cc2ccncc2)ccc1-c1ccc(C(O)(C(F)(F)F)C(F)(F)F)cc1` [Example 78, 1,1,1,3,3,3-hexafluoro-2-(2′-methyl-4′-((8-(pyridin-4-ylmethyl)-3,8-diazabicyclo[3.2.1]octan-3-yl)methyl)-[1,1′-biphenyl]-4-yl)propan-2-ol] the value was > 7.30; for `OC(c1ccc(-c2ccc(CN3CC4CCC(C3)N4Cc3ccncc3)cc2Br)cc1)(C(F)(F)F)C(F)(F)F` [Example 41, 2-(2′-bromo-4′-((8-(pyridin-4-ylmethyl)-3,8-diazabicyclo[3.2.1]octan-3-yl)methyl)-[1,1′-biphenyl]-4-yl)-1,1,1,3,3,3-hexafluoropropan-2-ol], > 7.30; for `CCS(=O)(=O)N1C2CCC1CN(Cc1ccc(-c3ccc(C(O)(C(F)(F)F)C(F)(F)F)cc3)c(C)c1)C2` [Example 69, 2-(4′-((8-(ethylsulfonyl)-3,8-diazabicyclo[3.2.1]octan-3-yl)methyl)-2'-methyl-[1,1′-biphenyl]-4-yl)-1,1,1,3,3,3-hexafluoropropan-2-ol], < 6.60.
Consider `CCc1cc(CN2CC3CCC(C2)N3S(C)(=O)=O)ncc1-c1ccc(C(O)(C(F)(F)F)C(F)(F)F)cc1C` [Example 3, 2-(4-(4-ethyl-6-((8-(methylsulfonyl)-3,8-diazabicyclo[3.2.1]octan-3-yl)methyl)pyridin-3-yl)-3-methylphenyl)-1,1,1,3,3,3-hexafluoropropan-2-ol], for which the negative-log IC50 (pIC50) was 6.60 to 7.30.
For `CCc1c(-c2ccc(C(O)(C(F)(F)F)C(F)(F)F)cc2Cl)cc(F)c(CN2CC3CCC(C2)N3S(C)(=O)=O)c1F` [Example 10, 2-(2-chloro-2′-ethyl-3′,5′-difluoro-4′-((8-(methylsulfonyl)-3,8-diazabicyclo[3.2.1]octan-3-yl)methyl)-[1,1′-biphenyl]-4-yl)-1,1,1,3,3,3-hexafluoropropan-2-ol] the value was > 7.30; for `CS(=O)(=O)N1C2CCC1CN(Cc1ccc(-c3ccc(C(O)(C(F)(F)F)C(F)(F)F)cc3)c(Br)c1)C2` [Example 40, 2-(2′-bromo-4′-((8-(methylsulfonyl)-3,8-diazabicyclo[3.2.1]octan-3-yl)methyl)-[1,1′-biphenyl]-4-yl)-1,1,1,3,3,3-hexafluoropropan-2-ol], 6.60 to 7.30; for `Cc1cc(CN2C3CCC2CN(Cc2ccc(-c4ccc(C(O)(C(F)(F)F)C(F)(F)F)cc4)c(C)c2)C3)ccn1` [Example 66, 1,1,1,3,3,3-hexafluoro-2-(2′-methyl-4′-((8-((2-methylpyridin-4-yl)methyl)-3,8-diazabicyclo[3.2.1]octan-3-yl)methyl)-[1,1′-biphenyl]-4-yl)propan-2-ol], < 6.60.
For `CCc1cc(CN2CC3CCC(C2)N3S(C)(=O)=O)cc(F)c1-c1ccc(C(O)(C(F)(F)F)C(F)(F)F)cc1` [Example 16, 2-(2′-ethyl-6′-fluoro-4′-((8-(methylsulfonyl)-3,8-diazabicyclo[3.2.1]octan-3-yl)methyl)-[1,1′-biphenyl]-4-yl)-1,1,1,3,3,3-hexafluoropropan-2-ol] the value was > 7.30; for `CCc1cc(CN2CC3CC2CN3S(C)(=O)=O)ccc1-c1ccc(C(O)(C(F)(F)F)C(F)(F)F)cc1` (centres unmarked) [Example 38, 2-(2′-ethyl-4′-((5-(methylsulfonyl)-2,5-diazabicyclo[2.2.1]heptan-2-yl)methyl)-[1,1′-biphenyl]-4-yl)-1,1,1,3,3,3-hexafluoropropan-2-ol], > 7.30.
Regarding `CCc1cc(CN2CC3CCC(C2)N3S(C)(=O)=O)ccc1-c1ccc(C(O)(C(F)(F)F)C(F)(F)F)cc1CC` [Example 25, 2-(2,2′-diethyl-4′-((8-(methylsulfonyl)-3,8-diazabicyclo[3.2.1]octan-3-yl)methyl)-[1,1′-biphenyl]-4-yl)-1,1,1,3,3,3-hexafluoropropan-2-ol], the pIC50 was > 7.30.
The compound `Cc1cc(CN2CC3CCC2CN3Cc2ccncc2)ccc1-c1ccc(C(O)(C(F)(F)F)C(F)(F)F)cc1` (centres unmarked) [Example 76, 1,1,1,3,3,3-hexafluoro-2-(2′-methyl-4′-((5-(pyridin-4-ylmethyl)-2,5-diazabicyclo[2.2.2]octan-2-yl)methyl)-[1,1′-biphenyl]-4-yl)propan-2-ol] had a pIC50 of 6.60 to 7.30.
With `CCc1cc(CN2CC3CCC(C2)N3S(C)(=O)=O)c(F)cc1-c1ccc(C(O)(C(F)(F)F)C(F)(F)F)cc1Cl` [Example 19, 2-(2-chloro-2′-ethyl-5′-fluoro-4′-((8-(methylsulfonyl)-3,8-diazabicyclo[3.2.1]octan-3-yl)methyl)-[1,1′-biphenyl]-4-yl)-1,1,1,3,3,3-hexafluoropropan-2-ol] the figure was > 7.30; with `Cc1cc(CN2CC3CCC(C2)N3S(=O)(=O)c2ccc(F)cc2)ccc1-c1ccc(C(O)(C(F)(F)F)C(F)(F)F)cc1` [Example 62, 1,1,1,3,3,3-hexafluoro-2-(4′-((8-((4-fluorophenyl)sulfonyl)-3,8-diazabicyclo[3.2.1]octan-3-yl)methyl)-2′-methyl-[1,1′-biphenyl]-4-yl)propan-2-ol], < 6.60; with `CS(=O)(=O)N1C2CCC1CN(c1cccc(-c3ccc(C(O)(C(F)(F)F)C(F)(F)F)cc3)c1)C2` [Example 9, 1,1,1,3,3,3-hexafluoro-2-(3′-(8-(methylsulfonyl)-3,8-diazabicyclo[3.2.1]octan-3-yl)-[1,1′-biphenyl]-4-yl)propan-2-ol], < 6.60.
On to `CCc1c(-c2ccc(C(O)(C(F)(F)F)C(F)(F)F)cc2F)cc(F)c(CN2CC3CCC(C2)N3S(C)(=O)=O)c1F` [Example 13, 2-(2′-ethyl-2,3′,5′-trifluoro-4′-((8-(methylsulfonyl)-3,8-diazabicyclo[3.2.1]octan-3-yl)methyl)-[1,1′-biphenyl]-4-yl)-1,1,1,3,3,3-hexafluoropropan-2-ol], for which the pIC50 was > 7.30.
On to `CCc1cc(CN2C3CCC2CN(S(C)(=O)=O)C3)ccc1-c1ccc(C(O)(C(F)(F)F)C(F)(F)F)cc1Cl` [Example 7, 2-(2-chloro-2′-ethyl-4′-((3-(methylsulfonyl)-3,8-diazabicyclo[3.2.1]octan-8-yl)methyl)-[1,1′-biphenyl]-4-yl)-1,1,1,3,3,3-hexafluoropropan-2-ol], for which the pIC50 was > 7.30.
For `CCc1cc(CN2CC3CCC(C2)N3S(C)(=O)=O)ccc1-c1ccc(C(O)(C(F)(F)F)C(F)(F)F)cc1` [Example 52, 2-(2′-ethyl-4′-((8-(methylsulfonyl)-3,8-diazabicyclo[3.2.1]octan-3-yl)methyl)-[1,1′-biphenyl]-4-yl)-1,1,1,3,3,3-hexafluoropropan-2-ol], the negative-log IC50 (pIC50) was > 7.30.

By pIC50 is commonly meant the negative decadic logarithm of the IC50, by convention in mol/L. A lower pIC50 goes with a large IC50.

For the origin of these results see US11230555B2, “Bicyclic RORγ modulators” (Escalier Biosciences B.V., priority 2018, dated 2022).
